Assay results as given in ChEMBL document CHEMBL1201862, “PubChem BioAssay data set” (2004).
The source made the active and inactive calls.

Columns and labels:
[1] = target: T1, High affinity choline transporter 1 (Homo sapiens, UniProt Q9GZV3); assay: human choline transporter blockers, potency – cell-based, 5-point CRC, membrane potential dye, dose response (AID 504840); type: functional
T1 sequence (Q9GZV3 whole entry): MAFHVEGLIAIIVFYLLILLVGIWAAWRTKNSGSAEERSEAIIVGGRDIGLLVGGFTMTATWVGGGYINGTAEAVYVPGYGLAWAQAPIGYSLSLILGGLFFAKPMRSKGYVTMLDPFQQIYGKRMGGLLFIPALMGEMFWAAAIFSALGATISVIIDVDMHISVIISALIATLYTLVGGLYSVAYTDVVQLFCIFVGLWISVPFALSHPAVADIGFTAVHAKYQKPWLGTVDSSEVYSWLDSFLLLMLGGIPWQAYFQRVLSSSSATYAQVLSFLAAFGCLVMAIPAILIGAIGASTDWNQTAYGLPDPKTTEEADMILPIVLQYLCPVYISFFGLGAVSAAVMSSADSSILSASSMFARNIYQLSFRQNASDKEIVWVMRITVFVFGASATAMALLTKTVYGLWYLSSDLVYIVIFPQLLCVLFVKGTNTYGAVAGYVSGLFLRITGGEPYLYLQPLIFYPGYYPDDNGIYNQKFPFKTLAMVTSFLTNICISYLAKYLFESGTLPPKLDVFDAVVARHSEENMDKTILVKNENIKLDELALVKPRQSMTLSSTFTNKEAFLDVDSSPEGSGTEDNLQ

[2] = target: T2, Short transient receptor potential channel 4 (Mus musculus, UniProt Q9QUQ5); assay: calcium entry via TRPC4 opening agents – cell-based, HEK293 TRPC4/mu-opioid, Fluo-4 calcium, dose response (AID 434937); type: functional
T2 sequence (Q9QUQ5 whole entry): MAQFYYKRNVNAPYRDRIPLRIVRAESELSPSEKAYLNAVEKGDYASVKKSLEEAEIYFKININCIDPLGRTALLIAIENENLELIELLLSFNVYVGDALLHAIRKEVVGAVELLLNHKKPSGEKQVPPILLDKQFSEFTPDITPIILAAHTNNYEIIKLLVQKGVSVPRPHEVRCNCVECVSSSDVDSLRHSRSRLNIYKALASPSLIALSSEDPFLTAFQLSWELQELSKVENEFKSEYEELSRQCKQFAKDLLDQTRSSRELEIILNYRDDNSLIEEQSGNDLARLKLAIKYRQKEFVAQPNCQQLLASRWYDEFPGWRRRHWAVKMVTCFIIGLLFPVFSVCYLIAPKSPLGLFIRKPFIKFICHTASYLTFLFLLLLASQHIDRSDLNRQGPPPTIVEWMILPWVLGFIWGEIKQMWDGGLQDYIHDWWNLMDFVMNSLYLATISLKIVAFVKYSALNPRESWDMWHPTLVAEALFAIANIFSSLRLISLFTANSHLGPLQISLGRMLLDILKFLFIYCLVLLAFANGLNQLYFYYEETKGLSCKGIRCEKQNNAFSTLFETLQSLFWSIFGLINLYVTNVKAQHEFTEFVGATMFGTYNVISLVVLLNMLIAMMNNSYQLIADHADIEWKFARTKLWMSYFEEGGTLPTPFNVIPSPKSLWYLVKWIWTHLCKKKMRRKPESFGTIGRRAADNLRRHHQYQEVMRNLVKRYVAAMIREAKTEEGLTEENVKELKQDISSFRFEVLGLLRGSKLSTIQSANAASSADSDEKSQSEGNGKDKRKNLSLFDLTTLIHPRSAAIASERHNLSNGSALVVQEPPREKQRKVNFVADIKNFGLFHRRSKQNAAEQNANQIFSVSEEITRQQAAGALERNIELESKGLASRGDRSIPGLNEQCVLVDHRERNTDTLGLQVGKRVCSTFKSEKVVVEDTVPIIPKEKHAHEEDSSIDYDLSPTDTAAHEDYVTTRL

[3] = target: Delta-type opioid receptor (Homo sapiens, UniProt P41143); assay: Counterscreen for agonists of heterodimerization of the mu 1 (OPRM1) and delta 1 (OPRD1) opioid receptors: Luminescence-based cell-based high throughput dose response assay to identify agonists of OPRD1 homodimerization. [Related pubchem assays (depositor defined):AID504326, AID504355, AID504692, AID504904, AID504905]; type: functional
Mu-type opioid receptor = Mu-type opioid receptor (Homo sapiens, UniProt P35372); assay: Counterscreen for agonists of heterodimerization of the mu 1 (OPRM1) and delta 1 (OPRD1) opioid receptors: Luminescence-based cell-based high throughput dose response assay to identify agonists of OPRM1 homodimerization.; type: functional;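 further: U2OS cells expressing OPRM1 and beta-arrestin as split beta-galactosidase partners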
[4] = target: 5-hydroxytryptamine receptor 5A (Homo sapiens, UniProt P47898); assay: Counterscreen for agonists of OPRM1-OPRD1 heterodimerization: luminescence-based cell-based high throughput dose response assay to identify agonists of 5-hydroxytryptamine (serotonin) 5A receptor (HTR5A). [Related pubchem assays (depositor defined):AID504326, AID504355, AID504692, AID504904, AID504905]; type: functional
[5] = target: Nuclear receptor subfamily 5 group A member 2 (Homo sapiens, UniProt O00482); type: functional, cell-based;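 further: HEK293T cells transfected with LRH-1 and a StAR promoter luciferase reporter; potency for inhibitors that lower LRH-1 driven reporter light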
Steroidogenic factor 1 = Steroidogenic factor 1 (Homo sapiens, UniProt Q13285); assay: Counterscreen for inverse agonists of the liver receptor homolog-1 (LRH-1; NR5A2): Luminescence-based cell-based high throughput dose response assay to identify inverse agonists of the Steroidogenic Factor 1 Nuclear Receptor (SF1; NR5A1).; type: functional
[6] = nonselective StAR promoter luciferase inhibitors – cell-based, luminescence, luciferase reporter, counter-screen for LRH-1 inverse agonist project, dose response (AID 651969); type: functional
Beta-galactosidase = Beta-galactosidase (Escherichia coli, UniProt Q8VNN2); assay: PubChem AID 485352; type: functional
[7] = target: T3, Type-1 angiotensin II receptor (Homo sapiens, UniProt P30556); assay: antagonism of angiotensin II type 1 receptor – cell-based, uHTS hits, selectivity assay for APJ receptor antagonist project, dose response (AID 463214); type: functional;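 further: antagonist potency against angiotensin II stimulated AT1 response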
T3 sequence (P30556 whole entry): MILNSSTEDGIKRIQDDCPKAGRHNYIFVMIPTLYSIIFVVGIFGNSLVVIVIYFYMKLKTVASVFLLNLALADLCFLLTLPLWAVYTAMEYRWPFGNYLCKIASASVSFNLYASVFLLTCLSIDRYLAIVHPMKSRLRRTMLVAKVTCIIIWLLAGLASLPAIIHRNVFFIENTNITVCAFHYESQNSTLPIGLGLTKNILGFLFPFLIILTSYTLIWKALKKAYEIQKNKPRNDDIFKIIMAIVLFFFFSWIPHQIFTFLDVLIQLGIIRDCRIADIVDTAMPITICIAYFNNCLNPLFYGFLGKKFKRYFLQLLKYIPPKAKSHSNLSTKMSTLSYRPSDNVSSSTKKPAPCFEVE

[8] = target: T4, Ubiquitin-conjugating enzyme E2 N (Homo sapiens, UniProt P61088); type: functional;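 further: Dose-response confirmation in a TR-FRET assay detecting UBC13-driven polyubiquitin chain formation, inhibition measured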
T4 sequence (P61088 whole entry): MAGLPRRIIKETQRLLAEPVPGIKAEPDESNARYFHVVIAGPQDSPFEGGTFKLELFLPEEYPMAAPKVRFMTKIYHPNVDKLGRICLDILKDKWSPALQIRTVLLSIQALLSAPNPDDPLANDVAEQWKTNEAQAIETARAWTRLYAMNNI

Nonstructural protein 1 = Nonstructural protein 1 (Influenza A virus, UniProt Q194T2); type: functional, Influenza A virus (A/California/07/2009(H1N1))
[9] = microbe, parasite or virus in culture; type: functional; details: Mycobacterium tuberculosis
[10] = Trypanosoma cruzi growth suppression in host cells – NIH3T3 host cells, beta-gal luminescence, confirmation (AID 2044); type: functional, cell-based;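 further: intracellular parasites grown in NIH/3T3 mouse fibroblasts as host cells; luminescent beta-galactosidase reporter signal from transgenic T. cruzi replicating inside host cells; inhibitors lower the luminescence signal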
[11] = NIH3T3 cell viability loss – ATP luminescence, mouse fibroblasts, counter-screen, dose response (AID 2010); type: functional, cell-based;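 further: cells exposed to compound for about 90 hours before reading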
[12] = target: T5, Endoribonuclease toxin MazF (Escherichia coli K-12, UniProt P0AE70); assay: activation of MazEF endoribonuclease cleavage – biochemical, fluorescence, single-stranded RNA substrate, uHTS hits, dose response (AID 588481); type: functional
T5 sequence (P0AE70 whole entry): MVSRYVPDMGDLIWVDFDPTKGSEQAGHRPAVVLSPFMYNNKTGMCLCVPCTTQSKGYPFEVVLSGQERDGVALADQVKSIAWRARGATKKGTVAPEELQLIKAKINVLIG

Large T antigen = Large T antigen (Simian virus 40, UniProt P03070); type: functional, Betapolyomavirus macacae;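 further: Confirmatory-stage PubChem screen for compounds that inhibit SV40 T antigen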
[13] = target: T6, Corticotropin-releasing factor receptor 2/Corticotropin-releasing factor-binding protein (Homo sapiens, UniProt P24387+Q13324); assay: Dose Response confirmation of uHTS hits for small molecule antagonists of the CRF-binding protein and CRF-R2 receptor complex.; type: functional; details: read-out: IC50_Mean
T6 sequence (Q13324 whole entry): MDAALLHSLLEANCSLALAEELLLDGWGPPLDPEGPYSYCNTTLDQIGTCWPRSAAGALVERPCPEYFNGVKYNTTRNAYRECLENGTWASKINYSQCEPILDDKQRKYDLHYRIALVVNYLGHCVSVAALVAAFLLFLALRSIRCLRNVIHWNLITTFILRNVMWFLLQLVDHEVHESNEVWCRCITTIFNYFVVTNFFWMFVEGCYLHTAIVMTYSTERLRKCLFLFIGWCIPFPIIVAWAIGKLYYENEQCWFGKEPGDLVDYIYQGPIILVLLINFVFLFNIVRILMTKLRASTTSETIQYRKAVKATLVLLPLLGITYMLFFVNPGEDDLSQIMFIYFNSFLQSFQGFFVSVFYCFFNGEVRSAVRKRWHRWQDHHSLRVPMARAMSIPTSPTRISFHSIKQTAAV
T6 sequence (P24387 whole entry): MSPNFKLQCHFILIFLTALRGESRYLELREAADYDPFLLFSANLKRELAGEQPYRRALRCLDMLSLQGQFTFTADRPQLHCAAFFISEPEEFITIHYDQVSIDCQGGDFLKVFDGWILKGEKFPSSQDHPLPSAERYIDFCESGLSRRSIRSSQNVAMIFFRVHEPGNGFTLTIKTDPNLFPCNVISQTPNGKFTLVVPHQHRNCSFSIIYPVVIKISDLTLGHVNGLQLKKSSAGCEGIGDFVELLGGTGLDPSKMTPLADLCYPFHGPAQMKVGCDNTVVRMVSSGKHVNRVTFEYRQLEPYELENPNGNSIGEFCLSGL

[14] = target: T6, Corticotropin-releasing factor receptor 2/Corticotropin-releasing factor-binding protein; assay: activators of CRF receptor 2 with binding protein – uHTS hits, confirmation (AID 602473); type: functional; details: read-out: EC50_Mean

Chain of Mu-type opioid receptor (P35372 whole entry): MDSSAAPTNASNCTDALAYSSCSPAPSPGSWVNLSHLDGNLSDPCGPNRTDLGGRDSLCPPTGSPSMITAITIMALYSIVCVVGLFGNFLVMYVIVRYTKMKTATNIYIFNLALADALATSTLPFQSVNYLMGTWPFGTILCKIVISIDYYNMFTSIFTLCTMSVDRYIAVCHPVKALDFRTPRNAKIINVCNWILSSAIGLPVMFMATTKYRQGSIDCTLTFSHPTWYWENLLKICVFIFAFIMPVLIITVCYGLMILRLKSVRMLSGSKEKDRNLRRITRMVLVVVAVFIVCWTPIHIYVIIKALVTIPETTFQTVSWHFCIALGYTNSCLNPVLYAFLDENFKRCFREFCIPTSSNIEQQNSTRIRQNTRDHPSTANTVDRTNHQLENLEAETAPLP
Chain of Steroidogenic factor 1 (Q13285 whole entry): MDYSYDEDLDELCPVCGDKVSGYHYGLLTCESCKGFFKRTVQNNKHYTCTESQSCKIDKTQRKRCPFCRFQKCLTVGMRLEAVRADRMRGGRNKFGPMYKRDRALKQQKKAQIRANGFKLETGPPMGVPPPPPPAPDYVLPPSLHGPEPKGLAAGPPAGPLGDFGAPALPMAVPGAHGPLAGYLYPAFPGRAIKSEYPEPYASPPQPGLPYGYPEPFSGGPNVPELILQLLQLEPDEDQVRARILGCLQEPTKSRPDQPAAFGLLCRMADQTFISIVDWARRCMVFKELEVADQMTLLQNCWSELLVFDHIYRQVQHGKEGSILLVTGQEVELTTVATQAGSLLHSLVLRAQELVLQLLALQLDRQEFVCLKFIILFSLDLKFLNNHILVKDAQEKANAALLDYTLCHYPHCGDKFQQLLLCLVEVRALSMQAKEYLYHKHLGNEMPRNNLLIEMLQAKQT
Chain of Nuclear receptor subfamily 5 group A member 2 (O00482 whole entry): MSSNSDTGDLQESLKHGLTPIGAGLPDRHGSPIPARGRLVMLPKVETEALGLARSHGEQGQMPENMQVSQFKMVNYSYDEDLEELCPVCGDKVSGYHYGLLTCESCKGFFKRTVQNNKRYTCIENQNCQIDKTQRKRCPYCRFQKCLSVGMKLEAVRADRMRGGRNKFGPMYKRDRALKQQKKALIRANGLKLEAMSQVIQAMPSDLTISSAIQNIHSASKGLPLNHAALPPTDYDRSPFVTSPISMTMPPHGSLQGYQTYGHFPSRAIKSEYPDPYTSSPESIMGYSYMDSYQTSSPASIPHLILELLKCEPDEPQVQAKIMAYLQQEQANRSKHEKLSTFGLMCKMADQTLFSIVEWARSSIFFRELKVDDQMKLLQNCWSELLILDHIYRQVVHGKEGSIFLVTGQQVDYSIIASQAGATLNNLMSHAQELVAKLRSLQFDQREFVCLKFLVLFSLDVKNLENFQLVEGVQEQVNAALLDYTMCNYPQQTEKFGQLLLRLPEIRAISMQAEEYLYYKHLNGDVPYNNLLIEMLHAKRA
Chain of Delta-type opioid receptor (P41143 whole entry): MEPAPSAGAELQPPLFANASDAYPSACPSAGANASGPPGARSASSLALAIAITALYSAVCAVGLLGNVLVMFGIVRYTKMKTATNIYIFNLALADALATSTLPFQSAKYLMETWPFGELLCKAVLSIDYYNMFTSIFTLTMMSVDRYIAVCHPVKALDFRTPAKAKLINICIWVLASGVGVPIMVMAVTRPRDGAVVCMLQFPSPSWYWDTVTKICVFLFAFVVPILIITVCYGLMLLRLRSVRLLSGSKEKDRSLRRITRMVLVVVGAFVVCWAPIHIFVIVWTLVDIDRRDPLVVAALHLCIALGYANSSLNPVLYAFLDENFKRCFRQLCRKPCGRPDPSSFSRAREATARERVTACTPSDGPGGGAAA
Chain of Beta-galactosidase (Q8VNN2 whole entry): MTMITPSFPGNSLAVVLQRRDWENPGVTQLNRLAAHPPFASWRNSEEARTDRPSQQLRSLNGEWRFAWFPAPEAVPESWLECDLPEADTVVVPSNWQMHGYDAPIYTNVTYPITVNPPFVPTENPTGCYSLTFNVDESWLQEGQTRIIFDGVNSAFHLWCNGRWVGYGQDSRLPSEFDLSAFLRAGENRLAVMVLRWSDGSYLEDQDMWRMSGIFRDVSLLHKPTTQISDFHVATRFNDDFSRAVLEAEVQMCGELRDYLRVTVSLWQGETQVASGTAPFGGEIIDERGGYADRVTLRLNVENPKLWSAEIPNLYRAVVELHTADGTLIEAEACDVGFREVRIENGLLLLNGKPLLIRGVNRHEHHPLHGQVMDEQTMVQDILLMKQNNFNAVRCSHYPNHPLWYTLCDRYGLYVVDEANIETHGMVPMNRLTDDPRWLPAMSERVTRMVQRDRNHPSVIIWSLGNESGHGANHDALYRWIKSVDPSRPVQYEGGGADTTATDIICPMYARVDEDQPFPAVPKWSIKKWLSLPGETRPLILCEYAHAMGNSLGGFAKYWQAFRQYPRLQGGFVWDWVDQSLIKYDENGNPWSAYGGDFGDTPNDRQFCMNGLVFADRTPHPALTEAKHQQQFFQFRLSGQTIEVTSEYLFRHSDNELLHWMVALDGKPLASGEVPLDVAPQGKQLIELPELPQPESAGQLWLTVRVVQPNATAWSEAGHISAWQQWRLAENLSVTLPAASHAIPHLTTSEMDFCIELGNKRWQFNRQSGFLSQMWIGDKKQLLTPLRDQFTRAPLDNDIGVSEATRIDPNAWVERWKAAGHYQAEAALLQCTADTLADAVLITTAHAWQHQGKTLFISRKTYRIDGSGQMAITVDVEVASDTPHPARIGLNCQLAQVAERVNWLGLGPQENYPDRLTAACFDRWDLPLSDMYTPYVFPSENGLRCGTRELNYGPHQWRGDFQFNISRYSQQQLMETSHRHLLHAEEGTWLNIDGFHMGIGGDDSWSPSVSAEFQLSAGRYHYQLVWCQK
Chain of 5-hydroxytryptamine receptor 5A (P47898 whole entry): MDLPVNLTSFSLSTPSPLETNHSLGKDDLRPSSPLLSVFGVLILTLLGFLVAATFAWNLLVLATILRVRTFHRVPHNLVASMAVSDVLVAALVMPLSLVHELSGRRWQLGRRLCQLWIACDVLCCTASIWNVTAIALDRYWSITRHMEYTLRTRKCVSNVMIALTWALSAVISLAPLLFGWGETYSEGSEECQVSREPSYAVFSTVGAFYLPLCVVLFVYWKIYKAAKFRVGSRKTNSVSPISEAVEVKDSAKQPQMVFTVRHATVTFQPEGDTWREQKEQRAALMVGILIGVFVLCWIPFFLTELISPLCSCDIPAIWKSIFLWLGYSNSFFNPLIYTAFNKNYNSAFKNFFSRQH
Chain of Nonstructural protein 1 (Q194T2 whole entry): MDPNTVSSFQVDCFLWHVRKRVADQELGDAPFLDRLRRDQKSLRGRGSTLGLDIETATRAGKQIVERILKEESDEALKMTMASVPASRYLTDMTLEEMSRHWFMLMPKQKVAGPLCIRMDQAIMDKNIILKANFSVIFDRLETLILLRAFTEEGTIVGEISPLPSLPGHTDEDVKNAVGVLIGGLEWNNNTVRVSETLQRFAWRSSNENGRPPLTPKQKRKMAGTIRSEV
Chain of Large T antigen (P03070 whole entry): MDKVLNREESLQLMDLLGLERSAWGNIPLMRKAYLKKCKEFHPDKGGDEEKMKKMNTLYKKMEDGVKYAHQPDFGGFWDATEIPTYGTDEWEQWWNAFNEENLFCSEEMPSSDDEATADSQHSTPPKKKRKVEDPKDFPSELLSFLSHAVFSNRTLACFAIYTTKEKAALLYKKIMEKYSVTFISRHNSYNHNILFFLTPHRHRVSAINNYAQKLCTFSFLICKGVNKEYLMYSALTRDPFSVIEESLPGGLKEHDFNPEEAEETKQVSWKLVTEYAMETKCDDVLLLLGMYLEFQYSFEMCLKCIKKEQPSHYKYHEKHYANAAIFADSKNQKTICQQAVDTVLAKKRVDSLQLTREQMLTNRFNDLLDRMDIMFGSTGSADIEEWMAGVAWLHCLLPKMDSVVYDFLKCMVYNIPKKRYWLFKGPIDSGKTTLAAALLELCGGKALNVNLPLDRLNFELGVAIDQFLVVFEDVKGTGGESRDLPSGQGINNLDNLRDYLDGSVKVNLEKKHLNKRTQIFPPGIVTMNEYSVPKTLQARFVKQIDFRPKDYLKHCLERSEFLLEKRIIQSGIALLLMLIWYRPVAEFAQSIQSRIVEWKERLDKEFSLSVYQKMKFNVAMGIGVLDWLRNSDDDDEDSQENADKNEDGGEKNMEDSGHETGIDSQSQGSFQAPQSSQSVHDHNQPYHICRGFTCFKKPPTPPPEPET

Cc1ccc(C(=O)NCC(=O)NCCCc2ccccc2)cc1
IC50 [1]: 16.6 µM (active)

Cc1ccc2c(C)c(C(=O)N(Cc3cccs3)C3CCS(=O)(=O)C3)oc2c1 (configuration not stated)
EC50 [2]: 2.66 µM (active)
EC50 [3]: 63.6 µM (inactive)
EC50 (Mu-type opioid receptor): > 92.5 µM (inactive)
EC50 [4]: > 92.5 µM (inactive)

Cc1ccc(NC(=O)COC(=O)C(NS(=O)(=O)c2ccc(Cl)cc2)C(C)O)c(Br)c1 (configuration not stated)
IC50 [5]: 35.9 µM (inactive)
IC50 (Steroidogenic factor 1): 1.33 µM (active)
IC50 [6]: 35.9 µM (inactive)

CCCc1cc(=O)oc2c(C)c(OCC(=O)NC3CC(C)(C)NC(C)(C)C3)ccc12
IC50 [5]: 35.9 µM (inactive)
IC50 (Steroidogenic factor 1): 0.443 µM (active)
IC50 [6]: 35.9 µM (inactive)

Cc1nonc1NC(=O)CSc1ccc(-c2ccccc2)nn1
IC50 [1]: 14.5 µM (active)

O=C(Cn1nnc2ccccc21)OCC(=O)c1ccc(Cl)c(Cl)c1
EC50 (Beta-galactosidase): > 40 µM (inactive)
IC50 [7]: 13.3 µM (active)

CCN=C(S)NNC(=O)c1ccccn1
IC50 [8]: > 20 µM (inactive)
IC50 (Nonstructural protein 1): 1.55 µM (active)

COCCN(C(=O)C1CC(=O)N(Cc2ccccc2)C1)c1nc(-c2ccc([N+](=O)[O-])cc2)cs1 (configuration not stated)
CC50 [9]: > 40 µM (active)
EC50 [3]: > 92.5 µM (inactive)
EC50 (Mu-type opioid receptor): 22.9 µM (inactive)
EC50 [4]: > 92.5 µM (inactive)

Cc1cc(C)c2sc(NC(=O)c3ccc([N+](=O)[O-])o3)nc2c1
EC50 [10]: 0.642 µM (active)
EC50 [11]: > 60 µM (not active)
IC50 [5]: 35.8 µM (inactive)
IC50 (Steroidogenic factor 1): 1.89 µM (active)
IC50 [6]: 35.8 µM (inactive)

CC1SC(C)C(=O)N(CC(=O)Nc2ccc3c(c2)OCO3)C1=O (configuration not stated)
IC50 [5]: 35.9 µM (inactive)
IC50 (Steroidogenic factor 1): 35.9 µM (inactive)
IC50 [6]: 35.9 µM (inactive)

COc1ccc(S(=O)(=O)NNc2nc(C)cc(C)n2)cc1[N+](=O)[O-]
EC50 (Beta-galactosidase): > 40 µM (inactive)
IC50 [7]: 36.7 µM (not active)

Cc1cccc(OCCC(=O)NCC(c2ccccc2)N(C)C)c1 (configuration not stated)
EC50 [2]: 0.473 µM (active)
EC50 [3]: > 92.5 µM (inactive)
EC50 (Mu-type opioid receptor): > 92.5 µM (inactive)
EC50 [4]: > 92.5 µM (inactive)

CC1CC[C+]([N-]NS(=O)(=O)c2ccc([N+](=O)[O-])cc2)CC1
EC50 [12]: > 99 µM (inactive)

Cc1ccc(S(=O)(=O)N/N=C/c2ccc3nccnc3c2)cc1
EC50 (Beta-galactosidase): > 40 µM (inactive)
IC50 [7]: > 40 µM (not active)

C=CCc1ccc(O)c(-c2ccc(O)c(CC=C)c2)c1 [HONOKIOL]
IC50 [1]: 12 µM (active)

CC1(C)C(/C=C/C=C/C=C/C=C2\N(CCCCS(=O)(=O)O)c3ccc4ccccc4c3C2(C)C)=[N+](CCCCS(=O)(=O)[O-])c2ccc3ccccc3c21 [INDOCYANINE GREEN]
IC50 (Large T antigen): 2.1 µM (active)
IC50 (Nonstructural protein 1): 2.7 µM (active)
IC50 [13]: > 47.1 µM (inactive)
EC50 [14]: > 53 µM (inactive)
